# Data reported in patent US20130055471A1, “Transgenic Ozone-Resistant Plants” (priority 2009, published 2013).
# “Also recorded” adds a separate entry of the source.
# Experiments:
# [1] = test system: Cotton; experiment: Total dark respiration and SHAM-sensitive AOX by phase shift fluorescence, cotton leaf sections; format: in vivo, Gossypium spp.; details: for increase of AOX respiration compared to the initial AOX respiration rate: ontogenic phase in 0 ppbv ozone ambient
# Description: All plantings were done at day 0. shifting plants to new ozone background for all plants=day 70. […] 60 ppb plants after 8 days (=day 78) in 0 ppb still act as if in 60 ppb. Sugar Cane: plants from 0 ppb, after having their first 70 days of development in 0 ppb, stayed for the nex 33 days (till day 103) in 60 ppb before being placed back in their original 0 ppb.
# Ozone generators (model OP-35-3P, Grupo Interozone, Brazil) were coupled to ozone monitors (model 202, 2B Technologies, Inc. USA; dynamic range of 1.5 ppbv to 100 ppmv of ozone; precision 1.5 ppbv or 2% of the reading) using a ozone monitor—generator interface (Engineering dep. Crops Advance Brazil). […] This was used as the upper limit for phytotron number one. Phytotron number two was set at 30 ppbv average ozone. Phytotron number three was set at 60 ppbv average ozone. Ozone levels of phytotron number two and three were permanently measured at 10 second intervals and averaged per minute. Each ozone monitor fed averaged values over an analog output to an ozone monitor—ozone generator interface. Hysteresis was set at +/−5 ppbv. Ozone levels were monitored close to the inlet of the two internal circulation ventilators. The ozone generators were adapted to accept an external digital signal from the interface.
# Respiration of plant material was tested as follows: Partial oxygen pressure drops due to oxygen consumption as result of dark respiration were measured using phase shift fluorescence measurement. For this, a NeoFox™ Phase Measurement System was used (Fluorometer Bench version using a QBIF600-VIS-NIR laboratory-grade bifurcated optical fiber with FOXY-R-8 cm overcoated fluorescence oxygen needle sensor, Ocean Optics Inc. USA).
# Fluorescence phase shift was expressed as Tau in microseconds (μs) and has an inverse and linear relation with the partial oxygen pressure.
# Salicylhydroxamic acid (SHAM) (99%, Sigma-Aldrich Brasil Ltda. Sao Paulo, Brazil) was used as an AOX inhibitor. The soluble sodium salicylhydroxamate salt was prepared by titrating SHAM with 0.1 M sodium hydroxide until neural pH. A stock solution ([…]) was prepared containing 300 ml/L ethanol from initial dissolving SHAM (same abbreviation is used for the salicylhydroxamate salt). From the stock solution a 20 mmol/L salicylhydroxamate final test solution was prepared by taking 12.3 ml stock solution and completing till 100 ml with a phosphate buffer solution (pH 7). The final SHAM test solution thus contained 3.7% residual ethanol. For proper control, the comparative test solution was also provided with 3.7 ml of ethanol per 100 ml of phosphate buffer solution (pH 7). To both solutions two drops of wetting agent (Silwet L-77 AG, GE Silicones Inc. USA) were added per 25 ml of test solution.
# Plant material collected was always the first fully grown leaf counting from the apical point downwards or outwards (e.g. for monocotyls). […] Per test, four leafs from four different plants were sampled. Cotton leafs were cut in half along the mid nerve. Using a clipper, 16 leaf sections of equal surface area of 400.9 mm2 each were cut, one from each base half and one from each top half part giving 4 sections per leaf and 16 sections per test. The leaf sections were distributed equally over two sub samples, one with and one without salicylhydroxamate. Using a chirurgical blade, all sections were given 7 parallel cuts (through and through) at approximately 2.5 mm apart over almost the full length of the section to guarantee lateral infiltration of the test solutions and gas exchange.
# Within 10 minutes of plant sampling the sections were cut, initial subsample weight was registered using a high precision laboratory scale and the subsamples were placed in their solutions with and without salicylhydroxamate for 60 minutes in the dark, to guarantee dark adaptation.
# Each sample contained 4 leaves, 4 sections per leaf providing 16 sections, 8 per subsample. […]
# [2] = test system: Sugarcane plants; experiment: AOX and total dark respiration in sugarcane exposed to various levels of ozone; format: in vivo, Saccharum spp.; details: for relative AOX, integration of the parabolic function yields / absolute AOX, integration of the parabolic function yields: 60 ppbv
# Description: For sugarcane 4 plantlets per pot were provided and these plantlets were transplanted from the agar following washing of their root system with nutrient solution (see below) in order to remove residual agar. Every sugar cane pot was provided with a dome consisting of a 5 litre water flask (PP) of which the bottom was removed creating a 30 cm high dome. Crepe-tape was used to provide an air-tight connection between the bottom rim of the flask and the planting pot. The 40 mm screw cap on top functioned as a ventilation valve, initially maintaining near 100% RV to prevent the plantlets from drying out. Directly after transplanting, the sugar cane plantlets were placed in a phytotron (4 pots per phytotron) more in particular in acrylic cabinets created therein (see below). The sugar cane domes were removed 10 days after transplanting. All plantings were done at day 0. shifting plants to new ozone background for all plants=day 70. […] 60 ppb plants after 8 days (=day 78) in 0 ppb still act as if in 60 ppb. Sugar Cane: plants from 0 ppb, after having their first 70 days of development in 0 ppb, stayed for the nex 33 days (till day 103) in 60 ppb before being placed back in their original 0 ppb. […] Sugarcane plants were grown in the same manner as described above in Example 2. The AOX and total dark respiration were measured for plants exposed to various levels of ozone as described above in Example 2.
# [3] = test system: Cotton; experiment: Full leaf Cotton Total Dark Respiration (TDR) measurements; format: in vivo, Gossypium spp.
# Description: (§1) Ozone generators (model OP-35-3P, Grupo Interozone, Brazil) were coupled to ozone monitors (model 202, 2B Technologies, Inc. […] Crops Advance Brazil). […] This was used as the upper limit for phytotron number one. […] Ozone levels of phytotron number two and three were permanently measured at 10 second intervals and averaged per minute. Each ozone monitor fed averaged values over an analog output to an ozone monitor-ozone generator interface. Hysteresis was set at +/-5 ppbv. Ozone levels were monitored close to the inlet of the two internal circulation ventilators. The ozone generators were adapted to accept an external digital signal from the interface. Respiration of plant material was tested as follows: Partial oxygen pressure drops due to oxygen consumption as result of dark respiration were measured using phase shift fluorescence measurement. For this, a NeoFoxTM Phase Measurement System was used (Fluorometer Bench version using a […] laboratory-grade bifurcated optical fiber with FOXY-R-8 cm overcoated fluorescence oxygen needle sensor, Ocean Optics Inc. USA). Fluorescence phase shift was expressed as Tau in microseconds (μs) and has an inverse and linear relation with the partial oxygen pressure. […] In addition, full leaf Total Dark Respiration (TDR) measurements without the use of any pre-treatment solution (no SHAM and pretreatment control) were executed for cotton, corn and rice. Data (tables 2, 3 and 4) show clear positive correlation between a) total respiration per unit of fresh weight and ozone level, and b) total respiration per unit of dry weight and ozone level.
# [4] = test system: Corn; experiment: Full leaf Corn Total Dark Respiration (TDR) measurements; format: in vivo, Zea mays L.
# Description: as §1
# [5] = test system: Rice; experiment: Full leaf Rice Total Dark Respiration (TDR) measurements; format: in vivo, Oryza sativa L.
# Description: as §1
# [6] = 0 →30 ppbv ozone: plants grown in 0 ppvb O3 and transferred to 30 ppvb O3
# [7] = 0 →60 ppbv ozone: plants grown in 0 ppvb O3 and transferred to 60 ppvb O3 (day 70, 7 days)
# [8] = 0 →60 →0 ppbv ozone: grown in 0 ppvb O3, transferred to 60 ppvb O3 and transferred back to 0 ppvb O3
# [9] = 60 →0 ppbv ozone: plants grown in 60 ppvb O3 and transferred to 0 ppvb O3 (day 70, 8 days)
# [10] = ozone concentration during growth 30 ppbv
# [11] = ozone concentration during growth 60 ppbv
smiles,measurement,setting,value
O=[O+][O-] [ozone],AOX component (arb units),[1]; [6],3.26 arb units
same,AOX/TDR,[1]; [6],30.3%
same,AOX/TDR relative to initial equilibrium,[1]; [6],116.5%
same,TDR excl AOX dTau/t (μs/s) without SHAM,[1]; [6],7.51E−06 μs/s
same,TDR incl AOX dTau/t (μs/s) with SHAM,[1]; [6],1.08E−05 μs/s
same,AOX component (arb units),[1]; [7],3.77 arb units
same,AOX/TDR,[1]; [7],39.6%
same,AOX/TDR relative to initial equilibrium,[1]; [7],152.5%
same,TDR excl AOX dTau/t (μs/s) without SHAM,[1]; [7],5.75E−06 μs/s
same,TDR incl AOX dTau/t (μs/s) with SHAM,[1]; [7],9.52E−06 μs/s
same,AOX component (arb units),[1]; [8],2.95 arb units
same,AOX/TDR,[1]; [8],25.0%
same,AOX/TDR relative to initial equilibrium,[1]; [8],96.2%
same,TDR excl AOX dTau/t (μs/s) without SHAM,[1]; [8],8.87E−06 μs/s
same,TDR incl AOX dTau/t (μs/s) with SHAM,[1]; [8],1.18E−05 μs/s
same,AOX component (arb units),[1]; [9],3.97 arb units
same,AOX/TDR,[1]; [9],35.8%
same,AOX/TDR relative to initial equilibrium,[1]; [9],100.5%
same,TDR excl AOX dTau/t (μs/s) without SHAM,[1]; [9],7.13E−06 μs/s
same,TDR incl AOX dTau/t (μs/s) with SHAM,[1]; [9],1.11E−05 μs/s
same,increase of AOX respiration compared to the initial AOX respiration rate,[1]; placed in the 30 ppbv ozone ambient,16.5%
same,increase of AOX respiration compared to the initial AOX respiration rate,[1]; placed in the 60 ppbv ozone ambient,52.5%
same,AOX respiration after return to the 0 ppbv ozone ambient,"[1]; ontogenic phase in 0 ppbv, passed time in the 60 ppbv ozone ambient",returned fully to its initial level
same,AOX component (arb units),[1]; plants grown in 30 ppvb O3,2.97 arb units
same,AOX/TDR,[1]; plants grown in 30 ppvb O3,29.9%
same,TDR excl AOX dTau/t (μs/s) without SHAM,[1]; plants grown in 30 ppvb O3,6.96E−06 μs/s
same,TDR incl AOX dTau/t (μs/s) with SHAM,[1]; plants grown in 30 ppvb O3,9.93E−06 μs/s
same,AOX component (arb units),[1]; plants grown in 60 ppvb O3,3.33 arb units
same,AOX/TDR,[1]; plants grown in 60 ppvb O3,35.6%
same,AOX/TDR relative to initial equilibrium,[1]; plants grown in 60 ppvb O3,100.0%
same,TDR excl AOX dTau/t (μs/s) without SHAM,[1]; plants grown in 60 ppvb O3,6.03E−06 μs/s
same,TDR incl AOX dTau/t (μs/s) with SHAM,[1]; plants grown in 60 ppvb O3,9.36E−06 μs/s
same,AOX respiration during stay in the zero ozone level ambient,[1]; plants grown up in the 60 ppbv ozone level ambient,did not lower their AOX respiration
same,"relative AOX, integration of the parabolic function yields",[2]; Time of Day 5.3,0.0%
same,"absolute AOX, integration of the parabolic function yields",[2]; Time of Day 5.6,0.0
same,"absolute AOX, integration of the parabolic function yields",[2]; Time of Day 23.0,51.9
same,"relative AOX, integration of the parabolic function yields",[2]; Time of Day 24.3,436%
same,AOX at 10:00 am (% of TDR),"[2]; 70 days 0 ppbv, 33 days at 60 ppbv, returned to 0 ppbv, after 5 days",approximately 5 % of TDR
same,AOX at about 10:00 am (% of TDR),"[2]; 70 days 0 ppbv, 33 days at 60 ppbv, then returned to 0 ppbv, first",approximately 35 % of TDR
same,AOX level after shift to 0 ppbv,"[2]; 70 days at 60 ppbv, thereafter 33 days in 0 ppbv",maintained their 60 ppb AOX levels; also recorded: maintain their high AOX; also recorded: consistently high AOX levels
same,AOX 60 ppbv/AOX 0 ppbv (dTau/dt/dTau/dt),[2]; absolute AOX,169%
same,AOX 60 ppbv/AOX 0 ppbv (%/%),[2]; relative AOX,154%
same,Normalized dark respiration activity (dwt),[3]; [10],13.4 h/Tau/g dry weigth/40 ml
same,Normalized dark respiration activity (fwt),[3]; [10],72.6 h/Tau/g fresh weigth/40 ml
same,Normalized dark respiration activity (dwt),[3]; [11],12.7 h/Tau/g dry weigth/40 ml
same,Normalized dark respiration activity (fwt),[3]; [11],67.9 h/Tau/g fresh weigth/40 ml
same,Normalized dark respiration activity (dwt),[4]; [10],14.7 h/Tau/g dry weigth/40 ml
same,Normalized dark respiration activity (fwt),[4]; [10],78.3 h/Tau/g fresh weigth/40 ml
same,Normalized dark respiration activity (dwt),[4]; [11],14.5 h/Tau/g dry weigth/40 ml
same,Normalized dark respiration activity (fwt),[4]; [11],72.1 h/Tau/g fresh weigth/40 ml
same,Normalized dark respiration activity (dwt),[5]; [10],8.2 h/Tau/g dry weigth/40 ml
same,Normalized dark respiration activity (fwt),[5]; [10],29.2 h/Tau/g fresh weigth/40 ml
same,Normalized dark respiration activity (dwt),[5]; [11],7.6 h/Tau/g dry weigth/40 ml
same,Normalized dark respiration activity (fwt),[5]; [11],29.4 h/Tau/g fresh weigth/40 ml
